Experimental findings from patent US8466168B2, “Tricyclic alkylaminomethyloxazolidinone derivatives” (Actellon Pharmaceuticals Ltd., priority 2008, dated 2013) are described below.

Where only a bound is given, the exact number is not on record here.

This experiment relates to S. aureus A798. Nature of the experiment: MIC determination by microdilution in cation-adjusted Mueller-Hinton Broth (CLSI M7-A7). Particulars: Staphylococcus aureus, microdilution method, strain S. aureus A798. The class given is cell-based. The protocol:
Minimal inhibitory concentrations (MICs; mg/l) were determined in cation-adjusted Mueller-Hinton Broth by a microdilution method following the description given in “Methods for Dilution Antimicrobial Susceptibility Tests for Bacteria that Grow Aerobically”, Approved standard, 7th ed., Clinical and Laboratory Standards Institute (CLSI) Document M7-A7, Wayne, Pa., USA, 2006. All Example compounds were tested against several Gram positive and Gram negative bacteria such as S. aureus, E. faecalis, S. pneumoniae, M catarrhalis, A. baumanii, E. coli or P. aeruginosa.

For `COc1ccc2ccc3c(c2n1)CC(CNC[C@@H]1CN(c2ccc4c(c2)NC(=O)CS4)C(=O)O1)CO3` (mixture of isomers) [Example 1, 6-((R)-5-{[((RS)-6-methoxy-3,4-dihydro-2H-1-oxa-5-aza-phenanthren-3-ylmethyl)-amino]-methyl}-2-oxo-oxazolidin-3-yl)-4H-benzo[1,4]thiazin-3-one], the MIC is no more than 0.031 µg/mL. In the case of `COc1ccc2ccc3c(c2n1)CC(CNC[C@@H]1CN(c2ccc4c(c2)NC(=O)CO4)C(=O)O1)CO3` (mixture of isomers) [Example 2, 6-((R)-5-{[((RS)-6-methoxy-3,4-dihydro-2H-1-oxa-5-aza-phenanthren-3-ylmethyl)-amino]-methyl}-2-oxo-oxazolidin-3-yl)-4H-benzo[1,4]oxazin-3-one] it was no more than 0.031 µg/mL; in that of `COc1ccc2ncc3c(c2n1)CC(CNC[C@@H]1CN(c2ccc4c(c2)NC(=O)CO4)C(=O)O1)CO3` (mixture of isomers) [Example 3, 6-((R)-5-{[((RS)-6-methoxy-3,4-dihydro-2H-1-oxa-5,9-diaza-phenanthren-3-ylmethyl)-amino]-methyl}-2-oxo-oxazolidin-3-yl)-4H-benzo[1,4]oxazin-3-one], no more than 0.031 µg/mL; in that of `COc1ccc2ncc3c(c2n1)CC(CNC[C@@H]1CN(c2ccc4c(c2)NC(=O)CS4)C(=O)O1)CO3` (mixture of isomers) [Example 4, 6-((R)-5-{[((RS)-6-methoxy-3,4-dihydro-2H-1-oxa-5,9-diaza-phenanthren-3-ylmethyl)-amino]-methyl}-2-oxo-oxazolidin-3-yl)-4H-benzo[1,4]thiazin-3-one], no more than 0.031 µg/mL.

For the molecule `COc1ccc2ncc3c(c2n1)CC(CNC[C@@H]1CN(c2ccc4c(c2)NC(=O)CS4)C(=O)O1)CN3` (mixture of isomers) [Example 5, 6-((R)-5-{[((RS)-6-methoxy-1,2,3,4-tetrahydro-1,5,9-triaza-phenanthren-3-ylmethyl)-amino]-methyl}-2-oxo-oxazolidin-3-yl)-4H-benzo[1,4]thiazin-3-one], the minimal inhibitory concentration (MIC) is no more than 0.031 µg/mL.

Molecule `COc1ccc2ccc3c(c2n1)C(CCNC[C@@H]1CN(c2ccc4c(c2)NC(=O)CS4)C(=O)O1)CO3` (mixture of isomers) [Example 6, 6-((R)-5-{[2-((RS)-2-methoxy-8,9-dihydro-furo[2,3-h]quinolin-9-yl)-ethylamino]-methyl}-2-oxo-oxazolidin-3-yl)-4H-benzo[1,4]thiazin-3-one] returned a minimum inhibitory concentration (MIC) of no more than 0.031 µg/mL.

Molecule `COc1ccc2ccc3c(c2n1)C(CCNC[C@@H]1CN(c2ccc4c(c2)NC(=O)CO4)C(=O)O1)CO3` (mixture of isomers) [Example 7, 6-((R)-5-{[2-((RS)-2-methoxy-8,9-dihydro-furo[2,3-h]quinolin-9-yl)-ethylamino]-methyl}-2-oxo-oxazolidin-3-yl)-4H-benzo[1,4]oxazin-3-one] returned an MIC of no more than 0.031 µg/mL.

Turning to `COc1ccc2ccc3c(c2n1)C(CNC[C@@H]1CN(c2ccc4c(c2)NC(=O)CS4)C(=O)O1)CO3` (mixture of isomers) [Example 8, 6-((R)-5-{[((RS)-2-methoxy-8,9-dihydro-furo[2,3-h]quinolin-9-ylmethyl)-amino]-methyl}-2-oxo-oxazolidin-3-yl)-4H-benzo[1,4]thiazin-3-one], the MIC is no more than 0.031 µg/mL. Molecule `COc1ccc2ncc3c(c2n1)C(CCNC[C@@H]1CN(c2ccc4c(c2)NC(=O)CS4)C(=O)O1)CO3` (mixture of isomers) [Example 9, 6-((R)-5-{[2-((RS)-8-methoxy-1,2-dihydro-3-oxa-5,9-diaza-cyclopenta[a]naphthalen-1-yl)-ethylamino]-methyl}-2-oxo-oxazolidin-3-yl)-4H-benzo[1,4]thiazin-3-one] displayed a minimal inhibitory concentration (MIC) of no more than 0.031 µg/mL.

In turn, `COc1ccc2ncc3c(c2n1)C(CCNC[C@@H]1CN(c2ccc4c(c2)NC(=O)CO4)C(=O)O1)CO3` (mixture of isomers) [Example 10, 6-((R)-5-{[2-((RS)-8-methoxy-1,2-dihydro-3-oxa-5,9-diaza-cyclopenta[a]naphthalen-1-yl)-ethylamino]-methyl}-2-oxo-oxazolidin-3-yl)-4H-benzo[1,4]oxazin-3-one] returned an MIC of no more than 0.031 µg/mL. The value for `COc1ccc2ncc3c(c2n1)C(CCNC[C@@H]1CN(c2ccc(C)c(F)c2)C(=O)O1)CO3` (mixture of isomers) [Example 11, (R)-3-(3-fluoro-4-methyl-phenyl)-5-{[2-((RS)-8-methoxy-1,2-dihydro-3-oxa-5,9-diaza-cyclopenta[a]naphthalen-1-yl)-ethylamino]-methyl}-oxazolidin-2-one] was 0.25 µg/mL; that for `COc1ccc2ncc3c(c2n1)C(CCNC[C@H]1CN(c2ccc4c(c2)NC(=O)CS4)C(=O)O1)CO3` (mixture of isomers) [Example 12, 6-((S)-5-{[2-((RS)-8-methoxy-1,2-dihydro-3-oxa-5,9-diaza-cyclopenta[a]naphthalen-1-yl)-ethylamino]-methyl}-2-oxo-oxazolidin-3-yl)-4H-benzo[1,4]thiazin-3-one] was no more than 0.031 µg/mL; that for `COc1ccc2ncc3c(c2n1)C(CCNCC[C@@H]1CN(c2ccc4c(c2)NC(=O)CS4)C(=O)O1)CO3` (mixture of isomers) [Example 13, 6-((R)-5-{2-[2-((RS)-8-methoxy-1,2-dihydro-3-oxa-5,9-diaza-cyclopenta[a]naphthalen-1-yl)-ethylamino]-ethyl}-2-oxo-oxazolidin-3-yl)-4H-benzo[1,4]thiazin-3-one] was no more than 0.031 µg/mL. Turning to `COc1ccc2ncc3c(c2n1)C(CNCC[C@@H]1CN(c2ccc4c(c2)NC(=O)CS4)C(=O)O1)CO3` (mixture of isomers) [Example 14, 6-((R)-5-{2-[((RS)-8-methoxy-1,2-dihydro-3-oxa-5,9-diaza-cyclopenta[a]naphthalen-1-ylmethyl)-amino]-ethyl}-2-oxo-oxazolidin-3-yl)-4H-benzo[1,4]thiazin-3-one], the MIC is no more than 0.031 µg/mL.

In turn, `COc1ccc2ncc3c(c2n1)C(CNCC[C@H]1CN(c2ccc4c(c2)NC(=O)CS4)C(=O)O1)CO3` (mixture of isomers) [Example 15, 6-((S)-5-{2-[((RS)-8-methoxy-1,2-dihydro-3-oxa-5,9-diaza-cyclopenta[a]naphthalen-1-ylmethyl)-amino]-ethyl}-2-oxo-oxazolidin-3-yl)-4H-benzo[1,4]thiazin-3-one] came in with an MIC of no more than 0.031 µg/mL. In the case of `COc1ccc2ncc3c(c2n1)C(CCNC(=O)[C@@H]1CN(c2ccc4c(c2)OCCO4)C(=O)O1)CO3` (mixture of isomers) [Example 16, (S)-3-(2,3-dihydro-benzo[1,4]dioxin-6-yl)-2-oxo-oxazolidine-5-carboxylic acid [2-((RS)-8-methoxy-1,2-dihydro-3-oxa-5,9-diaza-cyclopenta[a]naphthalen-1-yl)-ethyl]-amide] it was no more than 0.031 µg/mL; in that of `COc1ccc2ncc3c(c2n1)CC(CNC[C@@H]1CN(c2ccc4c(c2)NC(=O)CS4)C(=O)O1)O3` (mixture of isomers) [Example 17, 6-((R)-5-{[((RS)-8-methoxy-1,2-dihydro-3-oxa-5,9-diaza-cyclopenta[a]naphthalen-2-ylmethyl)-amino]-methyl}-2-oxo-oxazolidin-3-yl)-4H-benzo[1,4]thiazin-3-one], no more than 0.031 µg/mL; in that of `COc1ccc2ncc3c(c2n1)CC(CNCC[C@@H]1CN(c2ccc4c(c2)NC(=O)CO4)C(=O)O1)O3` (mixture of isomers) [Example 18, 6-((R)-5-{2-[((RS)-8-methoxy-1,2-dihydro-3-oxa-5,9-diaza-cyclopenta[a]naphthalen-2-ylmethyl)-amino]-ethyl}-2-oxo-oxazolidin-3-yl)-4H-benzo[1,4]oxazin-3-one], no more than 0.031 µg/mL. In the case of `COc1ccc2ncc3c(c2n1)CC(CNCC[C@@H]1CN(c2ccc4c(c2)NC(=O)CS4)C(=O)O1)O3` (mixture of isomers) [Example 19, 6-((R)-5-{2-[((RS)-8-methoxy-1,2-dihydro-3-oxa-5,9-diaza-cyclopenta[a]naphthalen-2-ylmethyl)-amino]-ethyl}-2-oxo-oxazolidin-3-yl)-4H-benzo[1,4]thiazin-3-one] it was no more than 0.031 µg/mL. Regarding `COc1ccc2ncc3c(c2n1)[C@@H](CCNCC1CN(c2ccc4c(c2)OCCO4)C(=O)O1)CO3` (mixture of isomers) [Example 20, (RS)-3-(2,3-dihydro-benzo[1,4]dioxin-6-yl)-5-{[2-((R)-8-methoxy-1,2-dihydro-3-oxa-5,9-diaza-cyclopenta[a]naphthalen-1-yl)-ethylamino]-methyl}-oxazolidin-2-one], the lowest concentration to inhibit growth (MIC) was 1 µg/mL.
